Test results as given in publication PMC8146637, “Enhanced Bioavailability and Efficacy of Silymarin Solid Dispersion in Rats with Acetaminophen-Induced Hepatotoxicity” (Pharmaceutics, 2021).

Legend:
[1] = test system: rat jejunal segments; experiment: Lucifer yellow permeability (intestinal integrity), Ussing chamber; type: in vitro ADME
Procedure: Segments were mounted on a tissue holder of a […] […] Lucifer yellow fluorescence in 200 μL sample aliquots was measured using a fluorescence spectrophotometer (Infinite 200 PRO, Tecan, Switzerland) at an excitation wavelength of 425 nm and emission wavelength of 535 nm.

[2] = Effect of various excipients on silymarin solubility; type: physicochemical
Procedure: The effect of various excipients on the silymarin solubility was measured. […] Mixtures were centrifuged at 16,000× g for 10 min and supernatants filtered through a membrane filter (pore size; 0.22 μm). Filtrates were diluted in 85% acetonitrile and silybin concentrations analyzed using a liquid chromatography-tandem mass spectrometry (LC-MS/MS) system.

[3] = in vivo; cited from earlier work
[4] = Liver distribution of silybin after repeated oral administration in APAP-induced hepatotoxic rats; conditions: rat, in vivo
Procedure: To investigate the liver distribution of silymarin and silymarin-SD, blood samples were collected from the abdominal artery at 0.5, 1, 2, 4, and 24 h after the repeated oral administration of silymarin (20 mg/kg as silybin, n = 20) or silymarin-SD (20 mg/kg as silybin, n = 20), according to the dosing schedule. Immediately after blood sampling, the liver was excised, rinsed in saline, and homogenized in nine volumes of saline, using a tissue homogenizer. Aliquots (50 μL) of 10% liver homogenate samples were stored at −80 °C for silybin assay.
Silybin concentrations in plasma and 10% liver homogenate samples were analyzed. Samples (100 μL) were added to 300 μL IS (naringenin, 20 ng/mL in acetonitrile) and the mixture was vigorously mixed for 10 min, followed by centrifugation at 16,000× g for 5 min. Supernatant aliquots (5 μL) were directly injected into an LC-MS/MS system.

[5] = Intestinal permeability of silybin, Ussing chamber; conditions: male, Wistar, rat, pH 7.4
Procedure: Male Wistar rats weighing 225–270 g (eight weeks old, n = 28) were purchased from Samtako Co. (Osan, Korea). Rats were housed in a 12-h light/dark cycle, and food and water were supplied ad libitum for one week prior to animal studies. […] Rats were fasted for 16 h, but had free access to water before study commencement. […] A proximal jejunum section (approximately 10 cm) was excised and washed in prewarmed HBSS (pH 7.4). Segments were mounted on a tissue holder of a Navicyte Easy Mount Ussing Chamber (Warner Instruments, Holliston, MA, USA), with a surface area of 0.76 cm², and acclimated in HBSS for 15 min with continuous oxygenation (95% O₂/5% CO₂ gas). […]
To investigate whether efflux transporters were involved in this process, an apical to basal (A to B) and a basal to apical (B to A) transport of 20 μM silybin in the presence of representative inhibitors of P-gp, MRPs, and BCRPs such as 20 μM cyclosporine A (CsA), 100 μM MK-571, and 20 μM fumitremorgin C (FTC), respectively, were measured in a proximal jejunum section from control rats (n = 4) [45, 46]. The effects of TPGS (0.01–1 mg/mL) on silybin permeability were also measured in a proximal jejunum section from control rats (n = 4) using the above method. […]

| increase in silymarin solubility in the presence of excipient [2] | Compound | further results |
| --- | --- | --- |
|  | Lucifer yellow [reference compound] | Papp,AB of Lucifer yellow ([1]; intestinal segment of APAP-induced hepatotoxic rats): 0.28 ×10⁻⁶ cm/s |
| less than 1.5 fold | hydroxypropyl cellulose [HPC] |  |
| 2~3 fold | Poloxamer 407 |  |
| 2~3 fold | pluronic F127 |  |
| highest increase | polyvinylpyrrolidone [PVP] |  |
|  | Silymarin | bioavailability [3]: 23–47%; Papp,AB of Lucifer yellow in the presence of silymarin or silymarin-SD [1]: not different; time course of liver silybin concentration [4]: decreased sharply for 4 h |
| 2~3 fold | Tween 80 |  |
|  | COc1cc(C2Oc3cc([C@H]4Oc5cc(O)cc(O)c5C(=O)[C@@H]4O)ccc3OC2CO)ccc1O (stereo partly shown) [silybin, Silybin] | efflux ratio at 2 h, 20 μM [5]: 5.8 |
